For orientation: IC50 means the concentration needed to halve the response being measured.

Molecules are shown by their SMILES.

SHP2, sequence (Q06124 whole entry): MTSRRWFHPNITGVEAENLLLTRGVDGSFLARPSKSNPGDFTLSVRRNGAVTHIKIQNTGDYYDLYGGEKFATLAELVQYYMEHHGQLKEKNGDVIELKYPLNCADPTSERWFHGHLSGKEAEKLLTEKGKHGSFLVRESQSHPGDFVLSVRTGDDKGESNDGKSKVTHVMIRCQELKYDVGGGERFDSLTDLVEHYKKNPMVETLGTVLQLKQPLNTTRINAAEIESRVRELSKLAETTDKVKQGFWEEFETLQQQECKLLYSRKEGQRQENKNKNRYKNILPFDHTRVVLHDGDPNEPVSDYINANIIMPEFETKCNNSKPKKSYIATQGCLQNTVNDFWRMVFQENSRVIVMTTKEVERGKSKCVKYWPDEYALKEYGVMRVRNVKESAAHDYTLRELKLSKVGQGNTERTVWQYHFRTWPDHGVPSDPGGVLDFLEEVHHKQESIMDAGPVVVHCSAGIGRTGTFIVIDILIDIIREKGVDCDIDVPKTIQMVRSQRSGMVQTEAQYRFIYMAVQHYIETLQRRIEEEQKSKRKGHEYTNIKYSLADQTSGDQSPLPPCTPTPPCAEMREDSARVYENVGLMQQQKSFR

One assay has as its target SHP2 (Homo sapiens (Human), UniProt Q06124). Nature of the assay: SHP2 Allosteric Inhibition Assay. To be noted: 0.5 nM SHP2 with 0.5 μM peptide IRS1_pY1172(dPEG8)pY1222; surrogate substrate DiFMUP; 25° C.; read-out: IC50. Type of assay: biochemical. An excerpt:
SHP2 Allosteric Inhibition Assay
SHP2 is allosterically activated through binding of bis-tyrosyl-phosphorylated peptides to its Src Homology 2 (SH2) domains. The latter activation step leads to the release of the auto-inhibitory interface of SHP2, which in turn renders the SHP2 protein tyrosine phosphatase (PTP) active and available for substrate recognition and reaction catalysis. The catalytic activity of SHP2 was monitored using the surrogate substrate DiFMUP in a prompt fluorescence assay format.
After 30-60 minutes incubation at 25° C., the surrogate substrate DiFMUP (Invitrogen, cat #D6567) was added to the reaction and incubated at 25° C. for 30 minutes. […] The inhibitor dose response curves were analyzed using normalized IC50 regression curve fitting with control based normalization.
With `C[C@@H]1OCC2(CCN(c3cnc4c(-c5cccc(Cl)c5Cl)c[nH]c4n3)CC2)[C@@H]1N` [Example 12, (3S,4S)-8-(7-(2,3-dichlorophenyl)-5H-pyrrolo[2,3-b]pyrazin-3-yl)-3-methyl-2-oxa-8-azaspiro[4.5]decan-4-amine], the IC50 is 0.039 µM.

Staying with this assay, now noted: 0.5 nM SHP2 with 0.5 μM peptide IRS1_pY1172(dPEG8)pY1222; surrogate substrate DiFMUP; 25° C.; read-out: SHP2 IC50.
`CNc1cc(-c2n[nH]c3nc(N4CCC5(CC4)CO[C@@H](C)[C@H]5N)n(C)c(=O)c23)ccn1` [Example 46, 6-((3S,4S)-4-amino-3-methyl-2-oxa-8-azaspiro[4.5]decan-8-yl)-5-methyl-3-(2-(methylamino)pyridin-4-yl)-1,5-dihydro-4H-pyrazolo[3,4-d]pyrimidin-4-one]: the half-maximal inhibitory concentration (IC50) came out at 0.05 µM.

As for `Cc1nc(N)ccc1-c1n[nH]c2nc(N3CCC4(CC3)C[C@@H](C(F)(F)F)C[C@H]4N)n(C)c(=O)c12` [Example 53, 3-(6-amino-2-methylpyridin-3-yl)-6-((1R,3R)-1-amino-3-(trifluoromethyl)-8-azaspiro[4.5]decan-8-yl)-5-methyl-1,5-dihydro-4H-pyrazolo[3,4-d]pyrimidin-4-one], the IC50 was found to be 0.036 µM.

As for `Cn1c(N2CCC3(CC2)COC[C@H]3N)nc2[nH]nc(-c3cccc(Cl)c3Cl)c2c1=O` [Example 20, (S)-6-(4-amino-2-oxa-8-azaspiro[4.5]decan-8-yl)-3-(2,3-dichlorophenyl)-5-methyl-1,5-dihydro-4H-pyrazolo[3,4-d]pyrimidin-4-one], the IC50 was found to be 0.05 µM. The same measure, in the same setting: under `C[C@@H]1OCC2(CCN(c3nc4[nH]nc(-c5cccc(N)c5)c4c(=O)n3C)CC2)[C@@H]1N` [Example 55, 6-((3S,4S)-4-amino-3-methyl-2-oxa-8-azaspiro[4.5]decan-8-yl)-3-(3-aminophenyl)-5-methyl-1,5-dihydro-4H-pyrazolo[3,4-d]pyrimidin-4-one] stands 0.083 µM; under `Cn1c(N2CCC(C)(CN)CC2)nc2[nH]nc(-c3ccnc(Cl)c3Cl)c2c1=O` [Example 25, 6-(4-(aminomethyl)-4-methylpiperidin-1-yl)-3-(2,3-dichloropyridin-4-yl)-5-methyl-1,5-dihydro-4H-pyrazolo[3,4-d]pyrimidin-4-one], 0.1 µM; under `COc1ccc(-c2n[nH]c3nc(N4CCC5(CC4)CO[C@@H](C)[C@H]5N)n(C)c(=O)c23)cn1` [Example 64, 6-((3S,4S)-4-amino-3-methyl-2-oxa-8-azaspiro[4.5]decan-8-yl)-3-(6-methoxypyridin-3-yl)-5-methyl-1,5-dihydro-4H-pyrazolo[3,4-d]pyrimidin-4-one], 0.024 µM. Still for that read-out and setting: under `Cn1c(N2CCC3(CCC[C@H]3N)CC2)nc2[nH]nc(-c3ccnc(Cl)c3Cl)c2c1=O` [Example 22, (R)-6-(1-amino-8-azaspiro[4.5]decan-8-yl)-3-(2,3-dichloropyridin-4-yl)-5-methyl-1,5-dihydro-4H-pyrazolo[3,4-d]pyrimidin-4-one] stands 0.057 µM; under `COc1ccc(-c2n[nH]c3nc(N4CCC5(CC4)CO[C@@H](C)[C@H]5N)n(C)c(=O)c23)cc1F` [Example 59, 6-((3S,4S)-4-amino-3-methyl-2-oxa-8-azaspiro[4.5]decan-8-yl)-3-(3-fluoro-4-methoxyphenyl)-5-methyl-1,5-dihydro-4H-pyrazolo[3,4-d]pyrimidin-4-one], 0.013 µM. Consider `C[C@@H]1OCC2(CCN(c3nc4[nH]nc(-c5cc(Cl)ncc5Cl)c4c(=O)n3C)CC2)[C@@H]1N` [Example 79, 6-((3S,4S)-4-amino-3-methyl-2-oxa-8-azaspiro[4.5]decan-8-yl)-3-(2,5-dichloropyridin-4-yl)-5-methyl-1,5-dihydro-4H-pyrazolo[3,4-d]pyrimidin-4-one], for which the IC50 was found to be 0.03 µM. Same read-out and setting: under `Cn1c(N2CCC3(CC2)COC[C@H]3N)nc2[nH]nc(-c3ccncc3)c2c1=O` [Example 69, (S)-6-(4-amino-2-oxa-8-azaspiro[4.5]decan-8-yl)-5-methyl-3-(pyridin-4-yl)-1,5-dihydro-4H-pyrazolo[3,4-d]pyrimidin-4-one] stands 0.039 µM; under `COc1cccc(-c2n[nH]c3nc(N4CCC5(CC4)COC[C@H]5N)n(C)c(=O)c23)c1Cl` [Example 68, (S)-6-(4-amino-2-oxa-8-azaspiro[4.5]decan-8-yl)-3-(2-chloro-3-methoxyphenyl)-5-methyl-1,5-dihydro-4H-pyrazolo[3,4-d]pyrimidin-4-one], 0.025 µM; under `Cn1c(N2CCC3(CC2)C[C@H](F)C[C@H]3N)nc2[nH]nc(-c3ccnc(NC4CC4)c3Cl)c2c1=O` [Example 38, 6-((1R,3S)-1-amino-3-fluoro-8-azaspiro[4.5]decan-8-yl)-3-(3-chloro-2-(cyclopropylamino)pyridin-4-yl)-5-methyl-1,5-dihydro-4H-pyrazolo[3,4-d]pyrimidin-4-one], 0.011 µM. Same read-out and setting: under `Cn1c(N2CCC3(CC2)CC(F)(F)C[C@H]3N)nc2[nH]nc(-c3ccncc3)c2c1=O` [Example 51, (R)-6-(1-amino-3,3-difluoro-8-azaspiro[4.5]decan-8-yl)-5-methyl-3-(pyridin-4-yl)-1,5-dihydro-4H-pyrazolo[3,4-d]pyrimidin-4-one] stands 0.014 µM. Still for that read-out and setting: under `Cc1ncccc1-c1n[nH]c2nc(N3CCC4(CC3)CO[C@@H](C)[C@H]4N)n(C)c(=O)c12` [Example 67, 6-((3S,4S)-4-amino-3-methyl-2-oxa-8-azaspiro[4.5]decan-8-yl)-5-methyl-3-(2-methylpyridin-3-yl)-1,5-dihydro-4H-pyrazolo[3,4-d]pyrimidin-4-one] stands 0.096 µM; under `COc1ccccc1-c1n[nH]c2nc(N3CCC4(CC3)CO[C@@H](C)[C@H]4N)n(C)c(=O)c12` [Example 66, 6-((3S,4S)-4-amino-3-methyl-2-oxa-8-azaspiro[4.5]decan-8-yl)-3-(2-methoxyphenyl)-5-methyl-1,5-dihydro-4H-pyrazolo[3,4-d]pyrimidin-4-one], 0.091 µM; under `Cn1c(N2CCC3(CC2)C[C@@H](C(F)(F)F)C[C@H]3N)nc2[nH]nc(-c3ccncc3)c2c1=O` [Example 54, 6-((1R,3R)-1-amino-3-(trifluoromethyl)-8-azaspiro[4.5]decan-8-yl)-5-methyl-3-(pyridin-4-yl)-1,5-dihydro-4H-pyrazolo[3,4-d]pyrimidin-4-one], 0.021 µM. For the molecule `C[C@@H]1OCC2(CCN(c3nc4[nH]nc(-c5ccc(F)c(F)c5)c4c(=O)n3C)CC2)[C@@H]1N` [Example 58, 6-((3S,4S)-4-amino-3-methyl-2-oxa-8-azaspiro[4.5]decan-8-yl)-3-(3,4-difluorophenyl)-5-methyl-1,5-dihydro-4H-pyrazolo[3,4-d]pyrimidin-4-one], the half-inhibitory concentration (IC50) is 0.011 µM. Still for that read-out and setting: under `C[C@@H]1OCC2(CCN(c3nc4[nH]nc(-c5ccnc(NCC6CC6)c5Cl)c4c(=O)n3C)CC2)[C@@H]1N` [Example 74, 6-((3S,4S)-4-amino-3-methyl-2-oxa-8-azaspiro[4.5]decan-8-yl)-3-(3-chloro-2-((cyclopropylmethyl)amino)pyridin-4-yl)-5-methyl-1,5-dihydro-4H-pyrazolo[3,4-d]pyrimidin-4-one] stands 0.039 µM; under `Cn1c(N2CCC3(CC2)C[C@H](F)C[C@H]3N)nc2[nH]nc(-c3ccccc3)c2c1=O` [Example 39, 6-((1R,3S)-1-amino-3-fluoro-8-azaspiro[4.5]decan-8-yl)-5-methyl-3-phenyl-1,5-dihydro-4H-pyrazolo[3,4-d]pyrimidin-4-one], 0.037 µM.

(Values after patent US10975080B2, “Compounds and compositions for inhibiting the activity of SHP2” (NOVARTIS AG, priority 2015, dated 2021).)
